Measurements from ChEMBL document CHEMBL4257509, “Effect of isouronium/guanidinium substitution on the efficacy of a series of novel anti-cancer agents” (Medchemcomm, 2018).
Active and inactive are the calls of the source. The calls are words filed in the database; no cut-off is given here.

Assays:
[1] = system: MCF7; test: Cytotoxicity against human MCF7 cells after 72 hrs by alamar blue assay; assay type: functional, cell-based; conditions: MCF7, 72 h
[2] = system: HeLa; test: Cytotoxicity against human HeLa cells after 72 hrs by alamar blue assay; assay type: functional, cell-based
[3] = system: HL-60; test: Cytotoxicity against human HL60 cells after 72 hrs by alamar blue assay; assay type: functional, cell-based; conditions: HL-60, 72 h
[4] = species: Homo sapiens; test: Inhibition of ERK phosphorylation in human HL60 cells at 10 uM after 16 hrs by Western blot analysis; assay type: cell-based
[5] = system: MCF7; test: Effect on total ERK expression in human MCF7 cells after 16 hrs by Western blot analysis; assay type: cell-based; conditions: mcf7, 16 h
[6] = system: HL-60; test: Effect on total ERK expression in human HL60 cells after 16 hrs by Western blot analysis; assay type: cell-based; conditions: hl-60, 16 h
[7] = system: MCF7; test: Inhibition of ERK phosphorylation in human MCF7 cells at 10 uM after 16 hrs by Western blot analysis; assay type: cell-based

Compound	IC50 [1] [µM]	IC50 [2] [µM]	IC50 [3] [µM]	inhibition [4]	Activity [5]	Activity [6]	inhibition [7]
N=C(N)Nc1ccc(Oc2cccc(NC(=O)c3ccc(Cl)c(C(F)(F)F)c3)c2)cc1	20.8	11.3	28.2				
N=C(N)Oc1ccc(Oc2cccc(NC(=O)c3ccc(Cl)c(C(F)(F)F)c3)c2)cc1	28.7	83.6	35.6				
CNC(=O)c1cc(Oc2ccc(NC(=O)Nc3ccc(Cl)c(C(F)(F)F)c3)cc2)ccn1 [SORAFENIB]	3.07	4.59	2.59	Active	Non-Toxic	Non-Toxic	Active
Cl.Cl.N=C(N)Nc1ccc(Oc2cccc(NC(=N)Nc3ccc(Cl)c(C(F)(F)F)c3)c2)cc1	9.84	9.48		inactive	Non-Toxic	Non-Toxic	Active
Cl.Cl.N=C(Nc1cccc(Oc2ccc(OC(=N)N)cc2)c1)Nc1ccc(Cl)c(C(F)(F)F)c1	4.68	3.35	5.49	Active	Non-Toxic	Non-Toxic	Active
